Measurements reported in US12662479B2 (Foghorn Therapeutics Inc., priority 2020, dated 2026).

Tests used:
[1] = target: T1, HiBit-BRG1 fusion protein (Homo sapiens, UniProt P51532); assay: HiBiT-BRG1 cell-based degradation assay (Nano-Glo HiBiT Lytic Detection, 24 h); settings: HeLa cells expressing HiBit-BRG1 and LgBit; for DC50: read-out: BRG1 HiBit Degradation IC50; for Dmax: HeLa, top dose 30 μM, read-out: BRG1 HiBit Degradation Maximum measured
T1 construct: expressed in transfected cells
Summary of the method: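 Degradation is scaled from DMSO-treated cells (0%) to cells given 2 μM of a known BRM/BRG1 degrader (100%). HeLa cells stably carrying HiBiT-BRG1 plus LgBiT (5000/well) were lysed with Nano-Glo HiBiT detection reagent, shaken 10 min at RT, and luminescence read.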

HiBit-BRM fusion protein = target: T2, HiBit-BRM fusion protein (Homo sapiens, UniProt P51531); assay: HiBiT-BRM cell-based degradation assay (Nano-Glo HiBiT Lytic Detection, 24 h); settings: HeLa cells expressing HiBiT-BRM; for DC50: read-out: BRM HiBit Degradation IC50; for BRM HiBit Degradation Maximum measured: top dose 30 μM
T2 construct: expressed in transfected cells
Summary of the method: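 Residual HiBiT-BRM in a stable HeLa line was measured by Nano-Glo lytic luminescence after 24 h compound exposure (top final dose 30 μM, 3-fold, 10 points, duplicate). Values are % degradation, scaled between DMSO-treated cells and cells given 2 μM of a known BRM/BRG1 degrader.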

T1 sequence (P51532 whole entry, the tested form may be a part): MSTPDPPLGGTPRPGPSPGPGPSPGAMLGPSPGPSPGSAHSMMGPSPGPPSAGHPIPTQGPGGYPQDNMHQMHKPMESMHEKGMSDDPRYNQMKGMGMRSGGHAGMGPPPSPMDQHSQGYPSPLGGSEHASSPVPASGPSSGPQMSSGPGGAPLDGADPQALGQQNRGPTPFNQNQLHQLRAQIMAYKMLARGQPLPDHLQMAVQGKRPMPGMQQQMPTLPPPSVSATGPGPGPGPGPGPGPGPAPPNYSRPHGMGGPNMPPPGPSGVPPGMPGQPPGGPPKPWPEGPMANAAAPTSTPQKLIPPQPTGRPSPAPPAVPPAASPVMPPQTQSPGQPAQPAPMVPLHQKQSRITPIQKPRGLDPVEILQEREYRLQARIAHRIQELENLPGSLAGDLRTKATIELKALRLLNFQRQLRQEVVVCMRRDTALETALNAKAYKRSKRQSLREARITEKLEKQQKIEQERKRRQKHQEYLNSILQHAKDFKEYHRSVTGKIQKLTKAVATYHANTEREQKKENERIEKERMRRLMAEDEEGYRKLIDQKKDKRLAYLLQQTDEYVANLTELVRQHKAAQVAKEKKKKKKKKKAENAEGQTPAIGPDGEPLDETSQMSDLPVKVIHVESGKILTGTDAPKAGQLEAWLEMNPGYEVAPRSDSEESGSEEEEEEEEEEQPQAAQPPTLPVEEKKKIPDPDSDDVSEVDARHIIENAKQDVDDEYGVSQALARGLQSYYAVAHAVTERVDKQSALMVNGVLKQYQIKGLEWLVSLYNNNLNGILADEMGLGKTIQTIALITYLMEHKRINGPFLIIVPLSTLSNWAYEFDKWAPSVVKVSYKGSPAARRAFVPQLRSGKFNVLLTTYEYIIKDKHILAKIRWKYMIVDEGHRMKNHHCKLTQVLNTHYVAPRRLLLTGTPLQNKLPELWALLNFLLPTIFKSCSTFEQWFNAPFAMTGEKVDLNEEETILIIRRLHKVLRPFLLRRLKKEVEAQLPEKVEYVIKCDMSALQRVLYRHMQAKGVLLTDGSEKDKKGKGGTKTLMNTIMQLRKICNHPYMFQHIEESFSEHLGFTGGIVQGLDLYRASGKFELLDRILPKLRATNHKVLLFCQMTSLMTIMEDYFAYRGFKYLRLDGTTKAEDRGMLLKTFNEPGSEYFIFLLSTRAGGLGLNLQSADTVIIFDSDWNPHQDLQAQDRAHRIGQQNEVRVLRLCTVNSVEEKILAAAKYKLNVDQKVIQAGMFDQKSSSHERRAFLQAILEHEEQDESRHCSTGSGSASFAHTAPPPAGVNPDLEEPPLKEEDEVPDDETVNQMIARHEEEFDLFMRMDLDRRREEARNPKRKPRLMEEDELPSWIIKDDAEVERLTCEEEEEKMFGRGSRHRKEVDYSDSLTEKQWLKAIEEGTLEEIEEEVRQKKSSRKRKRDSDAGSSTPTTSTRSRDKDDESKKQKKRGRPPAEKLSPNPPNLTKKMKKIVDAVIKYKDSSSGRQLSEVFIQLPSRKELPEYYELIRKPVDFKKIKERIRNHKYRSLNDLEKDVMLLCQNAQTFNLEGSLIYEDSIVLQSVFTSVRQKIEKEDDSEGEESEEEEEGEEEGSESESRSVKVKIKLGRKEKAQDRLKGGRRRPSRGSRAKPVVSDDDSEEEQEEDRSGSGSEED
T2 sequence (P51531 whole entry, the tested form may be a part): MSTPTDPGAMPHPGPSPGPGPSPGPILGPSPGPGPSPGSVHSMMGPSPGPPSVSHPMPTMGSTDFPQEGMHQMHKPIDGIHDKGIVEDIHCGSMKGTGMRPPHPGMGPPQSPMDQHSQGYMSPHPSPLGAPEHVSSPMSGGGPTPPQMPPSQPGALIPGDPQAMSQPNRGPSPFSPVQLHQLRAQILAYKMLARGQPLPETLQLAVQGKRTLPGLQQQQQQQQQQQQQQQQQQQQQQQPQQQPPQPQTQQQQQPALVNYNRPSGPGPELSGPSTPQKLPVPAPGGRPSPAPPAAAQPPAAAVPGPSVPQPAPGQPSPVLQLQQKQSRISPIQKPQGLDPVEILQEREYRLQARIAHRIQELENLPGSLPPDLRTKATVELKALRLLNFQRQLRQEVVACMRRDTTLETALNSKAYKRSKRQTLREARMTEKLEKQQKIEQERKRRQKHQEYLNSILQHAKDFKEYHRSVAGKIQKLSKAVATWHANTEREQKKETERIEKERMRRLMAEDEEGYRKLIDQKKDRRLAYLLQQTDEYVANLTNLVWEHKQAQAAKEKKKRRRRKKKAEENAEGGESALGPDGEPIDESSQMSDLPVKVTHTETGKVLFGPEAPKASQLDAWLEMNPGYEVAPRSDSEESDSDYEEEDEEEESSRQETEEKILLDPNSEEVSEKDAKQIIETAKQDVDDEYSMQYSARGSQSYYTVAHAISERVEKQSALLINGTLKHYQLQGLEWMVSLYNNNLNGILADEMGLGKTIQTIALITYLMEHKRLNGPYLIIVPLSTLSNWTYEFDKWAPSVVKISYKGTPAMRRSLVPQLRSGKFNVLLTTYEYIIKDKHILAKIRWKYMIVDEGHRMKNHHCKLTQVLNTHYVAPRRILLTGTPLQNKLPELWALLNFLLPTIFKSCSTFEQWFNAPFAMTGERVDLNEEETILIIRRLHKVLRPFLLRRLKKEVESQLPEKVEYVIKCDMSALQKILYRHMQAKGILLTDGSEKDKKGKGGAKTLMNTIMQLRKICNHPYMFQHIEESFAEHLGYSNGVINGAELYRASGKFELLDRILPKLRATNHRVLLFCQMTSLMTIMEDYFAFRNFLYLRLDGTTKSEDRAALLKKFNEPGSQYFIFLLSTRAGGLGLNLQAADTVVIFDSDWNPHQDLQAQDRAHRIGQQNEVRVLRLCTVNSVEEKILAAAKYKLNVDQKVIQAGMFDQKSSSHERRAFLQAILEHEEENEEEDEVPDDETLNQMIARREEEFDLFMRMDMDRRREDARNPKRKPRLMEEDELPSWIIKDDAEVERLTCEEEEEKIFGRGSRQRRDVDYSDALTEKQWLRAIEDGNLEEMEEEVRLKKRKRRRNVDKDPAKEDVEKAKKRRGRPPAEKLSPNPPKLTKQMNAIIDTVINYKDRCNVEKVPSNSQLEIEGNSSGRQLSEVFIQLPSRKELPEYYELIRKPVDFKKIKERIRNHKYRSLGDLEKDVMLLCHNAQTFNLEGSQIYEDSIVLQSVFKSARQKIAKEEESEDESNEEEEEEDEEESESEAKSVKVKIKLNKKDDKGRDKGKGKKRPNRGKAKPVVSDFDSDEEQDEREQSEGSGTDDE

Row | DC50 [1] | Dmax [1] | DC50 (HiBit-BRM fusion protein) | BRM HiBit Degradation Maximum measured (HiBit-BRM fusion protein) | Structure (SMILES)
1 | > 10 µM | < 50% | > 10 µM | C (‘C’ = Maximum degradation <50%) | Cc1ncsc1-c1ccc(CNC(=O)[C@H]2C[C@@H](O)CN2C(=O)[C@@H](NC(=O)COCCOCCOCCNC(=O)CCCOCC[C@H](NC(=O)c2ccn(S(C)(=O)=O)c2)C(=O)Nc2nc(-c3ccccc3)cs2)C(C)(C)C)cc1 [Compound 250, (2R,4R)-4-hydroxy-1-[(2S)-2-(2-[2-[2-(2-[4-[(3S)-3-[(1-methanesulfonylpyrrol-3-yl)formamido]-3-[(4-phenyl-1,3-thiazol-2-yl)carbamoyl]propoxy]butanamido]ethoxy)ethoxy]ethoxy]acetamido)-3,3-dimethylbutanoyl]-N-[[4-(4-methyl-1,3-thiazol-5-yl)phenyl]methyl]pyrrolidine-2-carboxamide]
2 | > 10 µM | < 50% | > 10 µM | C (‘C’ = Maximum degradation <50%) | Cc1ncsc1-c1ccc(CNC(=O)[C@@H]2C[C@@H](O)CN2C(=O)[C@@H](NC(=O)CCCCCNC(=O)CCCOCC[C@H](NC(=O)c2ccn(S(C)(=O)=O)c2)C(=O)Nc2nc(-c3ccccc3)cs2)C(C)(C)C)cc1 [Compound 251, (2S,4R)-4-hydroxy-1-[(2S)-2-(6-[4-[(3S)-3-[(1-methanesulfonylpyrrol-3-yl)formamido]-3-[(4-phenyl-1,3-thiazol-2-yl)carbamoyl]propoxy]butanamido]hexanamido)-3,3-dimethylbutanoyl]-N-[[4-(4-methyl-1,3-thiazol-5-yl)phenyl]methyl]pyrrolidine-2-carboxamide]
3 | > 10 µM | < 50% | > 10 µM | C (‘C’ = Maximum degradation <50%) | CN(CCNC(=O)CCCOCC[C@H](NC(=O)c1ccn(S(C)(=O)=O)c1)C(=O)Nc1nc(-c2ccccc2)cs1)CCNC(=O)COc1cccc2c1C(=O)N(C1CCC(=O)NC1=O)C2=O.O=CO (stereo partly drawn) [Compound 252, (2S)-4-[3-[(2-[[2-(2-[[2-(2,6-dioxopiperidin-3-yl)-1,3-dioxoisoindol-4-yl]oxy]acetamido)ethyl](methyl)amino]ethyl)carbamoyl]propoxy]-2-[(1-methanesulfonylpyrrol-3-yl)formamido]-N-(4-phenyl-1,3-thiazol-2-yl)butanamide; formic acid]
4 | > 10 µM | < 50% | > 10 µM | C (‘C’ = Maximum degradation <50%) | CS(=O)(=O)n1ccc(C(=O)N[C@@H](CCOCCCC(=O)NCCS(=O)(=O)CCNc2cccc3c2C(=O)N(C2CCC(=O)NC2=O)C3=O)C(=O)Nc2nc(-c3ccccc3)cs2)c1 (stereo partly drawn) [Compound 253, (2S)-4-(3-[[2-(2-[[2-(2,6-dioxopiperidin-3-yl)-1,3-dioxoisoindol-4-yl]amino]ethanesulfonyl)ethyl]carbamoyl]propoxy)-2-[(1-methanesulfonylpyrrol-3-yl)formamido]-N-(4-phenyl-1,3-thiazol-2-yl)butanamide]
5 | > 10 µM | < 50% | > 10 µM | C (‘C’ = Maximum degradation <50%) | CS(=O)(=O)n1ccc(C(=O)N[C@@H](CCOCCCC(=O)N2CCC(CCCCN3CCN(c4ccc5c(c4)C(=O)N(C4CCC(=O)NC4=O)C5=O)CC3)CC2)C(=O)Nc2nc(-c3ccccc3)cs2)c1 (some centres unmarked) [Compound 257]
6 | > 10 µM | < 50% | > 10 µM | C (‘C’ = Maximum degradation <50%) | CS(=O)(=O)n1ccc(C(=O)N[C@@H](CCOCCCC(=O)NCCOCCOCCOCCNC(=O)COc2cccc3c2C(=O)N(C2CCC(=O)NC2=O)C3=O)C(=O)Nc2nc(-c3ccccc3)cs2)c1 (stereo partly drawn) [Compound 258, (2S)-4-(3-[[2-(2-[2-[2-(2-[[2-(2,6-dioxopiperidin-3-yl)-1,3-dioxoisoindol-4-yl]oxy]acetamido)ethoxy]ethoxy]ethoxy)ethyl]carbamoyl]propoxy)-2-[(1-methanesulfonylpyrrol-3-yl)formamido]-N-(4-phenyl-1,3-thiazol-2-yl)butanamide]

Row | Structure (SMILES) | DC50 [1] | Dmax [1] | DC50 (HiBit-BRM fusion protein) | BRM HiBit Degradation Maximum measured (HiBit-BRM fusion protein)
7 | CS(=O)(=O)n1ccc(C(=O)N[C@@H](CCOCCCC(=O)N2CCN(CCCCCOc3ccc4c(c3)C(=O)N(C3CCC(=O)NC3=O)C4=O)CC2)C(=O)Nc2nc(-c3ccccc3)cs2)c1 (stereo partly drawn) [Compound 254, (2S)-4-[4-[4-(5-[[2-(2,6-dioxopiperidin-3-yl)-1,3-dioxoisoindol-5-yl]oxy]pentyl)piperazin-1-yl]-4-oxobutoxy]-2-[(1-methanesulfonylpyrrol-3-yl)formamido]-N-(4-phenyl-1,3-thiazol-2-yl)butanamide] | > 10 µM | < 50% | > 10 µM | C (‘C’ = Maximum degradation <50%)
8 | CS(=O)(=O)n1ccc(C(=O)N[C@@H](CCOCCCC(=O)N2CCN(CCCOc3ccc4c(c3)C(=O)N(C3CCC(=O)NC3=O)C4=O)CC2)C(=O)Nc2nc(-c3ccccc3)cs2)c1 (stereo partly drawn) [Compound 255, (2S)-4-[4-[4-(3-[[2-(2,6-dioxopiperidin-3-yl)-1,3-dioxoisoindol-5-yl]oxy]propyl)piperazin-1-yl]-4-oxobutoxy]-2-[(1-methanesulfonylpyrrol-3-yl)formamido]-N-(4-phenyl-1,3-thiazol-2-yl)butanamide] | > 10 µM | < 50% | > 10 µM | C (‘C’ = Maximum degradation <50%)
9 | CS(=O)(=O)n1ccc(C(=O)N[C@@H](CCOCCCC(=O)N2CC(Oc3ccc4c(c3)C(=O)N(C3CCC(=O)NC3=O)C4=O)C2)C(=O)Nc2nc(-c3ccccc3)cs2)c1 (stereo partly drawn) [Compound 256, (2S)-4-[4-(3-[[2-(2,6-dioxopiperidin-3-yl)-1,3-dioxoisoindol-5-yl]oxy]azetidin-1-yl)-4-oxobutoxy]-2-[(1-methanesulfonylpyrrol-3-yl)formamido]-N-(4-phenyl-1,3-thiazol-2-yl)butanamide] | > 10 µM | < 50% | > 10 µM | C (‘C’ = Maximum degradation <50%)
10 | CS(=O)(=O)n1ccc(C(=O)N[C@@H](CCOCCCC(=O)N2CC(COc3cccc4c3C(=O)N(C3CCC(=O)NC3=O)C4=O)C2)C(=O)Nc2nc(-c3ccccc3)cs2)c1 (stereo partly drawn) [Compound 259, (2S)-4-[4-[3-([[2-(2,6-dioxopiperidin-3-yl)-1,3-dioxoisoindol-4-yl]oxy]methyl)azetidin-1-yl]-4-oxobutoxy]-2-[(1-methanesulfonylpyrrol-3-yl)formamido]-N-(4-phenyl-1,3-thiazol-2-yl)butanamide] | > 10 µM | < 50% | > 10 µM | C (‘C’ = Maximum degradation <50%)
11 | CS(=O)(=O)n1ccc(C(=O)N[C@@H](CCOCCCC(=O)N2CC(COc3ccc4c(c3)C(=O)N(C3CCC(=O)NC3=O)C4=O)C2)C(=O)Nc2nc(-c3ccccc3)cs2)c1 (stereo partly drawn) [Compound 260, (2S)-4-[4-[3-([[2-(2,6-dioxopiperidin-3-yl)-1,3-dioxoisoindol-5-yl]oxy]methyl)azetidin-1-yl]-4-oxobutoxy]-2-[(1-methanesulfonylpyrrol-3-yl)formamido]-N-(4-phenyl-1,3-thiazol-2-yl)butanamide] | > 10 µM | < 50% | > 10 µM | C (‘C’ = Maximum degradation <50%)
